The source of these data is PubChem BioAssay AID624374 (Broad Institute, 2012).

Results filed as inconclusive are left out. Calls of active or inactive are those of the source. How the calls were made is not given here.

One assay is described as follows: HEK293 cell viability, dose response, counter-screen for EBV LMP1 inhibitor project, dry powder, set 2 (AID 624374). The note with it: HEK293 viability counterscreen, plate reader; at 30 µM (top of the series). Background: The purpose of a counterscreen is to sort out artefacts and off-target activity.
Take `Cc1noc(C)c1S(=O)(=O)Nc1ccc2c(c1)C(=O)N([C@@H](C)CO)C[C@H](C)[C@H](CN(C)Cc1ccc(C(F)(F)F)cc1)OCCCC[C@@H](C)O2`: the activity change, negative = viability loss was 11.8% (inactive).
On the same count and under the same terms, under `CN(C)C(=O)c1cccc(-c2cccc(-c3nc(C(=O)NCc4ccccc4)cc4c3[C@@H](CCO)N([S@](=O)C(C)(C)C)C4)c2)c1` stands -12.3% (inactive); under `C[C@H](NC(=O)C[C@@H]1C=C[C@H](NC(=O)Cc2ccccn2)[C@H](CO)O1)c1ccccc1`, 3.96% (inactive).

Staying with this assay, now noted: HEK293 viability counterscreen, plate reader; at 35 µM (top of the series).
Regarding `C[C@H](NC(=O)C[C@H]1C=C[C@@H](NC(=O)Cc2ccccn2)[C@@H](CO)O1)c1ccccc1`, the activity change, negative = viability loss was -1.38% (inactive).
On to `C[C@@H](NC(=O)C[C@@H]1C=C[C@H](NC(=O)Cc2ccccn2)[C@@H](CO)O1)c1ccccc1`, for which the activity change, negative = viability loss is -2.91% (inactive).
Still for that read-out and setting: the value for `COc1cccc(S(=O)(=O)N(C)C[C@@H]2Oc3cc(C4=CCCCC4)ccc3S(=O)(=O)N([C@@H](C)CO)C[C@@H]2C)c1` was -1.39% (inactive); that for `O=C(C[C@@H]1CC[C@H]2[C@@H](COC[C@H](O)CN2Cc2ccc(Oc3ccccc3)cc2)O1)N1CCc2ccccc2C1` was -2.75% (inactive).
On the same count and under the same terms, under `CC(C)NC(=O)N1Cc2cc(C(=O)NC3Cc4ccccc4C3)nc(-c3cccc(-c4cccnc4)c3)c2[C@@H]1CCO` stands 22.6% (inactive); under `O=C(C[C@H]1C[C@@H]2c3cc(NC(=O)c4ccc5c(c4)OCO5)ccc3O[C@@H]2[C@@H](CO)O1)NCc1ccc(Oc2ccccc2)cc1`, -3.98% (inactive).
With `CC(C)(C)[S@@](=O)N1Cc2cc(C(=O)NCc3ccccn3)nc(-c3cccc(-c4ccccc4F)c3)c2[C@H]1CCO`, the activity change, negative = viability loss is 2.2% (inactive).
Take `COc1ccc(-c2cccc(-c3nc(C(=O)NCC(F)(F)F)cc4c3[C@H](CCO)N([S@@](=O)C(C)(C)C)C4)c2)cc1`: the activity change, negative = viability loss is -10.9% (inactive).
Regarding `Cc1noc(C)c1S(=O)(=O)Nc1ccc2c(c1)C(=O)N([C@@H](C)CO)C[C@@H](C)[C@H](CN(C)Cc1ccc(C(F)(F)F)cc1)OCCCC[C@@H](C)O2`, the activity change, negative = viability loss was -0.939% (inactive).
Still for that read-out and setting: under `COc1ccccc1C#Cc1cnc2c(c1)C(=O)N([C@H](C)CO)C[C@H](C)[C@@H](CN(C)C(=O)c1ccc3c(c1)OCO3)O2` stands 7.12% (inactive); under `Cc1cc(C(=O)Nc2ccc3c(c2)C(=O)N(C)[C@H]2CC[C@H](CC(=O)NCc4ccc(-c5ccccc5)cc4)O[C@H]2CO3)no1`, -11.4% (inactive); under `COc1cccc(S(=O)(=O)N(C)C[C@H]2Oc3cc(C4=CCCCC4)ccc3S(=O)(=O)N([C@H](C)CO)C[C@H]2C)c1`, -4.57% (inactive).
On to `C[C@@H](NC(=O)C[C@H]1C=C[C@@H](NC(=O)Cc2ccccn2)[C@@H](CO)O1)c1ccccc1`, for which the activity change, negative = viability loss is 2.73% (inactive).
Regarding `COc1ccc(S(=O)(=O)N(C)C[C@H]2Oc3ncc(/C=C/c4ccccc4)cc3C(=O)N([C@H](C)CO)C[C@@H]2C)cc1`, the activity change, negative = viability loss was 13.6% (inactive).
Take `N#C[C@H]1[C@H](c2ccc(C#Cc3ccccc3F)cc2)[C@@H](CO)N1C(=O)c1cccnc1`: the activity change, negative = viability loss was 4.46% (inactive).
The same measure, in the same setting: the value for `COc1ccc(S(=O)(=O)N(C)C[C@@H]2Oc3ncc(/C=C/c4ccccc4)cc3C(=O)N([C@@H](C)CO)C[C@H]2C)cc1` was 5.95% (inactive); that for `C[C@@H]1CN([C@H](C)CO)C(=O)c2c(c3ccccc3n2C)-c2ccccc2CO[C@@H]1CN(C)C(=O)Nc1ccc(F)cc1` was 6.88% (inactive); that for `C[C@@H](NC(=O)C[C@H]1C=C[C@@H](NC(=O)Cc2ccccn2)[C@H](CO)O1)c1ccccc1` was -2.87% (inactive).
Still for that read-out and setting: the value for `COc1cccc(S(=O)(=O)N(C)C[C@H]2Oc3cc(C4=CCCCC4)ccc3S(=O)(=O)N([C@@H](C)CO)C[C@@H]2C)c1` was 9.06% (inactive).
As to `O=C(C[C@H]1C[C@H]2c3cc(NC(=O)c4ccc5c(c4)OCO5)ccc3O[C@H]2[C@H](CO)O1)NCc1ccc(Oc2ccccc2)cc1`, the activity change, negative = viability loss was -11.7% (inactive).
Same read-out and setting: the value for `CN(C)c1ccc2c(c1)[C@@H]1C[C@@H](CC(=O)NCc3ccc(Oc4ccccc4)cc3)O[C@H](CO)[C@@H]1O2` was -4.49% (inactive).
Still for that read-out and setting: the value for `N#C[C@H]1N[C@H](CO)[C@H]1c1ccc(C#Cc2ccccc2F)cc1` was -10.8% (inactive); that for `C/C=C/c1cccc(-c2nc(C(=O)Nc3nccs3)cc3c2[C@@H](CCO)N(C(=O)NC(C)C)C3)c1` was 4.5% (inactive); that for `COc1ccccc1C#Cc1ccc2c(c1)O[C@H](CN(C)Cc1cccnc1)[C@H](C)CN([C@@H](C)CO)S2(=O)=O` was -0.213% (inactive).
As to `C[C@H]1CN([C@@H](C)CO)C(=O)c2c(c3ccccc3n2C)-c2ccccc2CO[C@@H]1CN(C)C(=O)Nc1ccc(F)cc1`, the activity change, negative = viability loss was 2.63% (inactive).
On the same count and under the same terms, the value for `C[C@@H]1CN([C@H](C)CO)S(=O)(=O)c2ccc(C#C[C@@H](C)O)cc2O[C@H]1CN(C)Cc1ccc(-c2ccccc2)cc1` was -18.7% (inactive); that for `O=C(C[C@H]1C[C@@H]2c3cc(NS(=O)(=O)c4ccc(F)cc4)ccc3O[C@@H]2[C@H](CO)O1)NC1CCCCC1` was 2.73% (inactive); that for `COc1ccccc1C#Cc1ccc([C@H]2[C@H](C#N)N(C(=O)C3CC3)[C@H]2CO)cc1` was 2.46% (inactive).
For the compound `C[C@H]1CN([C@@H](C)CO)C(=O)Cc2cc(NC(=O)Cc3ccccc3)ccc2O[C@@H]1CN(C)Cc1ccc(C(F)(F)F)cc1`, the activity change, negative = viability loss was 12.4% (inactive).
Still for that read-out and setting: under `C[C@@H]1CN([C@H](C)CO)C(=O)Cc2cc(NC(=O)Cc3ccccc3)ccc2O[C@@H]1CN(C)Cc1ccc(C(F)(F)F)cc1` stands 0.279% (inactive).
`C[C@@H](NC(=O)C[C@@H]1C=C[C@@H](NC(=O)Cc2ccccn2)[C@H](CO)O1)c1ccccc1`: the activity change, negative = viability loss was 5.06% (inactive).
As for `Cc1noc(C)c1S(=O)(=O)Nc1ccc2c(c1)C(=O)N([C@H](C)CO)C[C@@H](C)[C@H](CN(C)Cc1ccc(C(F)(F)F)cc1)OCCCC[C@@H](C)O2`, the activity change, negative = viability loss is -3.71% (inactive).
In the case of `O=C(C[C@@H]1C[C@H]2c3cc(NC(=O)c4ccc5c(c4)OCO5)ccc3O[C@H]2[C@H](CO)O1)NC1CCCCC1`, the activity change, negative = viability loss is 2.89% (inactive).
Take `C[C@H]1CN([C@@H](C)CO)C(=O)c2cc(C#Cc3ccccc3F)cnc2O[C@@H]1CN(C)C(=O)C1CCCCC1`: the activity change, negative = viability loss was 7.95% (inactive).
For `Cc1noc(C)c1S(=O)(=O)Nc1ccc2c(c1)C(=O)N([C@@H](C)CO)C[C@H](C)[C@@H](CN(C)Cc1ccc(C(F)(F)F)cc1)OCCCC[C@H](C)O2`, the activity change, negative = viability loss is 4.59% (inactive).
In the case of `C[C@@H]1CN([C@H](C)CO)C(=O)c2c(c3ccccc3n2C)-c2ccccc2CO[C@H]1CN(C)C(=O)Nc1ccc(F)cc1`, the activity change, negative = viability loss was -13% (inactive).
The same measure, in the same setting: under `CC(C)NC(=O)N1Cc2cc(C(=O)NC3Cc4ccccc4C3)nc(-c3cccc(-c4cccnc4)c3)c2[C@H]1CCO` stands 25.1% (inactive).
On to `O=C(C[C@@H]1C[C@@H]2c3cc(NC(=O)c4cccnc4)ccc3O[C@@H]2[C@H](CO)O1)NCC(F)(F)F`, for which the activity change, negative = viability loss was -0.478% (inactive).
Still for that read-out and setting: under `O=C(C[C@@H]1C[C@@H]2c3cc(NS(=O)(=O)c4ccc(F)cc4)ccc3O[C@@H]2[C@H](CO)O1)NC1CCCCC1` stands 6.32% (inactive); under `Cc1noc(C)c1S(=O)(=O)Nc1ccc2c(c1)C(=O)N([C@H](C)CO)C[C@@H](C)[C@@H](CN(C)Cc1ccc(C(F)(F)F)cc1)OCCCC[C@H](C)O2`, -1.22% (inactive); under `COc1cccc(S(=O)(=O)N(C)C[C@@H]2Oc3cc(C4=CCCCC4)ccc3S(=O)(=O)N([C@H](C)CO)C[C@H]2C)c1`, -0.785% (inactive).
Same read-out and setting: the value for `Cc1noc(C)c1S(=O)(=O)Nc1ccc2c(c1)C(=O)N([C@@H](C)CO)C[C@@H](C)[C@@H](CN(C)Cc1ccc(C(F)(F)F)cc1)OCCCC[C@@H](C)O2` was -11.2% (inactive); that for `CC(C)NC(=O)N1[C@H](CO)[C@H](c2ccc(C#CC3CCCCC3)cc2)[C@@H]1C#N` was -6.23% (inactive); that for `O=C(Nc1ccc(C(F)(F)F)cc1)Nc1ccc2c(c1)[C@@H]1C[C@H](CC(=O)N3CCc4ccccc4C3)O[C@H](CO)[C@@H]1O2` was -11.3% (inactive).
Same read-out and setting: the value for `C[C@H](NC(=O)C[C@H]1C[C@@H]2c3cc(NC(=O)c4cccnc4)ccc3O[C@@H]2[C@@H](CO)O1)c1ccccc1` was -6.5% (inactive); that for `Cc1noc(C)c1S(=O)(=O)Nc1ccc2c(c1)C(=O)N([C@H](C)CO)C[C@@H](C)[C@H](CN(C)Cc1ccc(C(F)(F)F)cc1)OCCCC[C@H](C)O2` was -6.47% (inactive); that for `Cc1noc(C)c1S(=O)(=O)Nc1ccc2c(c1)C(=O)N([C@H](C)CO)C[C@@H](C)[C@@H](CN(C)Cc1ccc(C(F)(F)F)cc1)OCCCC[C@@H](C)O2` was -10.4% (inactive).
Take `C[C@@H](NC(=O)C[C@H]1C=C[C@H](NC(=O)Cc2ccccn2)[C@H](CO)O1)c1ccccc1`: the activity change, negative = viability loss is -7.68% (inactive).
For the compound `COc1ccccc1C#Cc1ccc2c(c1)O[C@H](CN(C)Cc1cccnc1)[C@H](C)CN([C@H](C)CO)S2(=O)=O`, the activity change, negative = viability loss is 4.43% (inactive).
In the case of `C[C@H]1CN([C@@H](C)CO)C(=O)c2c(c3ccccc3n2C)-c2ccccc2CO[C@H]1CN(C)C(=O)Nc1ccc(F)cc1`, the activity change, negative = viability loss was -8.86% (inactive).
